Data from ChEMBL document CHEMBL1201862, “PubChem BioAssay data set” (2004).
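Exposure lasted 48 hours, with cells grown in 96-well plates and compounds tested at five concentrations. At the GI50, growth is halved.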 Calls of active or inactive are those of the source. Cut-off read from the data, not from the text of the source: active = GI50 up to about 1.1 µM and inactive = higher.

How the values were obtained:
Experiment in all cases: growth of human tumour cells (NCI), 48 h
DMS-114 = test system: DMS-114
DMS-273 = test system: DMS-273
HOP-18 = test system: HOP-18
LXFL 529 = test system: LXFL 529
M19-MEL = test system: M19-MEL
RXF 631 = test system: RXF 631
XF498 = test system: XF498
KM-20L2 = test system: KM-20L2
SNB-78 = test system: SNB-78

SMILES | GI50 (DMS-114) | GI50 (DMS-273) | GI50 (HOP-18) | GI50 (LXFL 529) | GI50 (M19-MEL) | GI50 (RXF 631) | GI50 (XF498) | GI50 (KM-20L2) | GI50 (SNB-78)
NC(=O)c1c[se]c(C2OC(CO)C(O)C2O)n1 (stereo not given) | 25.4 µM (inactive) | 3.58 µM (inactive) | > 100 µM (inactive) | 17 µM (inactive) | 5.28 µM (inactive) | 7.6 µM (inactive) | 8.91 µM (inactive) |  | 
CCCN(CCC)C(=O)Cc1c2n(c3ccccc13)Cc1ccccc1-2 | 23.6 µM (inactive) | 29.1 µM (inactive) | > 100 µM (inactive) | 42.4 µM (inactive) | 56.6 µM (inactive) |  | > 100 µM (inactive) | > 100 µM (inactive) | > 100 µM (inactive)
O=C(Nc1ccc([N+](=O)[O-])cc1[N+](=O)[O-])C(=O)C(C(=O)c1ccc(Cl)c(Cl)c1)C1OC(=O)c2ccccc21 (stereo not given) | 18.1 µM (inactive) | 31 µM (inactive) |  | 17.1 µM (inactive) | 25.1 µM (inactive) |  |  | 29.8 µM (inactive) | 21.9 µM (inactive)
COc1ccc(CC2C(=O)NC(C)C(=O)N(C)C3C(=O)N(C)C(Cc4ccc(O)c(c4)Oc4ccc(cc4)C3O)C(=O)NC(C)C(=O)NC(C)C(=O)N2C)cc1 (stereo not given) | 0.00145 µM (active) | 0.0123 µM (active) | 0.00195 µM (active) |  | 0.013 µM (active) |  | 0.0131 µM (active) | 0.0246 µM (active) | 0.00188 µM (active)
NC(=O)c1c(-c2ccccc2)c(-c2ccccc2)cc2c(=O)c3ccccc3[nH]c12 | 21.8 µM (inactive) | 19.9 µM (inactive) |  | 16.1 µM (inactive) | 27.6 µM (inactive) | 27.4 µM (inactive) | 18 µM (inactive) | 21 µM (inactive) | 22.3 µM (inactive)
Nc1c(-c2nc3ccccc3[nH]2)sc(=S)n1-c1ccccc1 | 96.2 µM (inactive) | > 100 µM (inactive) |  | 95.3 µM (inactive) | > 100 µM (inactive) | > 100 µM (inactive) |  | > 10 µM (inactive) | > 100 µM (inactive)
O=C(O)[C@H](NS(=O)(=O)c1ccc(F)cc1)c1ccccc1 | > 100 µM (inactive) | > 100 µM (inactive) | > 100 µM (inactive) | > 100 µM (inactive) | > 100 µM (inactive) |  | > 100 µM (inactive) | > 100 µM (inactive) | > 100 µM (inactive)
O=[N+]([O-])c1ccc(C2=Nn3cnnc3SC2)o1 | 10.8 µM (inactive) | 17.6 µM (inactive) |  | 13.6 µM (inactive) | 4.02 µM (inactive) | 12.1 µM (inactive) | 16.6 µM (inactive) |  | 22.2 µM (inactive)
Cc1nc2ccccc2nc1CC(=O)C(=O)Nc1ccc(Cl)cc1Cl |  | > 100 µM (inactive) |  | > 100 µM (inactive) | > 100 µM (inactive) | > 100 µM (inactive) |  | > 100 µM (inactive) | > 100 µM (inactive)
C/C=N\N1C(=O)c2ccccc2C1=O | > 100 µM (inactive) | > 100 µM (inactive) | > 100 µM (inactive) | > 100 µM (inactive) | > 100 µM (inactive) | > 100 µM (inactive) | > 100 µM (inactive) | > 100 µM (inactive) | > 100 µM (inactive)
CC(=O)Nc1[nH]n(C)c(=O)c1-c1nnc(C)s1 | > 100 µM (inactive) | > 100 µM (inactive) |  | > 100 µM (inactive) |  | > 100 µM (inactive) | > 100 µM (inactive) | > 100 µM (inactive) | > 100 µM (inactive)
C=C1[C@@H](C)[C@H]2[C@H](Cc3ccccc3)NC(=O)[C@]23OC(=O)/C=C/[C@H](O)CCC[C@@H](C)C/C=C/[C@H]3[C@@H]1O | 14.5 µM (inactive) | 8.93 µM (inactive) | 0.156 µM (active) |  | 45.8 µM (inactive) |  | 0.571 µM (active) | 15.2 µM (inactive) | 1.03 µM (active)
O/N=C1/C(=C/c2ccc(OCc3ccccc3)cc2)CCCC1C(NO)c1ccc(OCc2ccccc2)cc1 (stereo not given) |  | 13 µM (inactive) | 33 µM (inactive) | 12.7 µM (inactive) | 22.2 µM (inactive) | 8.47 µM (inactive) |  | 8.38 µM (inactive) | 
COc1ccc(NC(=O)/C(=C/c2ccccc2)C(C)=O)cc1 | 15.2 µM (inactive) | 13.7 µM (inactive) | 13.5 µM (inactive) | 12.4 µM (inactive) | 14.3 µM (inactive) | 15.7 µM (inactive) | 16.2 µM (inactive) | 14.3 µM (inactive) | 15.5 µM (inactive)
COC(=O)C(=NNc1ccccc1[N+](=O)[O-])C(=O)OC |  | > 100 µM (inactive) | > 100 µM (inactive) | > 100 µM (inactive) | > 100 µM (inactive) |  | 41.2 µM (inactive) | > 100 µM (inactive) | 
C=C[Si](C)(C)COC(=O)/C(C#N)=C/C=C/c1ccccc1 | > 100 µM (inactive) | 85.7 µM (inactive) | > 100 µM (inactive) | 47.5 µM (inactive) | 99.5 µM (inactive) |  |  | > 100 µM (inactive) | > 100 µM (inactive)

SMILES | GI50 (DMS-114) | GI50 (DMS-273) | GI50 (HOP-18) | GI50 (LXFL 529) | GI50 (M19-MEL) | GI50 (RXF 631) | GI50 (XF498) | GI50 (KM-20L2) | GI50 (SNB-78)
CC12CC(=O)NN=C1c1ccccc1C2 (stereo not given) | > 100 µM (inactive) | > 100 µM (inactive) |  |  | > 100 µM (inactive) |  | > 100 µM (inactive) | > 100 µM (inactive) | > 100 µM (inactive)
O=[N+]([O-])c1ccc(C2=Nn3c(nnc3-c3ccccc3)SC2)o1 | 19.7 µM (inactive) | 20 µM (inactive) | 19.5 µM (inactive) | 16.1 µM (inactive) | 18.5 µM (inactive) |  | 19.7 µM (inactive) | 24.7 µM (inactive) | 20.3 µM (inactive)
N=C(N)NS(=O)(=O)c1ccc(NC(=O)c2cccc3cc4ccccc4nc23)cc1 | 97.5 µM (inactive) | > 100 µM (inactive) |  | 21.7 µM (inactive) | > 100 µM (inactive) |  | 99.5 µM (inactive) | > 100 µM (inactive) | 40.6 µM (inactive)
CCOC(=O)Cn1c(=O)[nH]c(=O)c2c1ncn2Cc1ccccc1 | > 100 µM (inactive) | > 100 µM (inactive) | > 100 µM (inactive) | > 100 µM (inactive) | > 100 µM (inactive) | > 100 µM (inactive) | > 100 µM (inactive) | > 100 µM (inactive) | > 100 µM (inactive)
CC1OC(OC2C(CO)OC(O[C@H]3CC[C@@]4(C)C(=CC[C@H]5[C@@H]6C[C@@H]7O[C@]8(CC[C@@H](C)CN8)[C@@H](C)[C@@H]7[C@@]6(C)CC[C@@H]54)C3)C(O)C2O)C(O)C(O)C1O (stereo not given in full) | > 100 µM (inactive) | > 100 µM (inactive) | 43.3 µM (inactive) | > 100 µM (inactive) | > 100 µM (inactive) |  | > 100 µM (inactive) | 28.9 µM (inactive) | > 100 µM (inactive)
CNC(=O)OCc1nc([S+](C)[O-])n(C)c1COC(=O)NC (stereo not given) | > 34.6 µM (inactive) | > 100 µM (inactive) | > 88.9 µM (inactive) | > 23.1 µM (inactive) | > 45.1 µM (inactive) | > 100 µM (inactive) | > 100 µM (inactive) | > 100 µM (inactive) | > 60.5 µM (inactive)
C[N+]1(C)C[C@@H](O)C[C@@H]1C(=O)[O-] [BETONICINE] | > 100 µM (inactive) | > 100 µM (inactive) | > 100 µM (inactive) | > 100 µM (inactive) | > 100 µM (inactive) |  | > 100 µM (inactive) | > 100 µM (inactive) | > 100 µM (inactive)
Cc1cc(N(CCC#N)CCC#N)ccc1/C(Sc1ccccc1)=C(\NC(=O)/C=C/c1ccccc1)C(=O)Sc1ccccc1 | 1.54 µM (inactive) | 6.44 µM (inactive) | 14 µM (inactive) | 1.57 µM (inactive) | 3.22 µM (inactive) | 2.79 µM (inactive) | 12 µM (inactive) | 2.14 µM (inactive) | 3.33 µM (inactive)
Cc1cc2nc3c(=O)[nH]c(=O)nc-3n(CC(O)C(O)C(O)CO)c2cc1N (stereo not given) | > 100 µM (inactive) | > 100 µM (inactive) | > 100 µM (inactive) | > 100 µM (inactive) | > 100 µM (inactive) | > 100 µM (inactive) |  |  | > 100 µM (inactive)
NC(=S)N/N=C(/CCN1CCCC1)CC(C1=C(O)C2=CCCCC2OC1=O)c1ccccc1 (stereo not given) |  |  | > 100 µM (inactive) | > 100 µM (inactive) | > 100 µM (inactive) |  | > 100 µM (inactive) | > 100 µM (inactive) | > 100 µM (inactive)
COc1ccc([N+]2=NC(c3ccc([N+](=O)[O-])cc3)=NN(c3ccccc3)C2)cc1 | 40.1 µM (inactive) | > 10 µM (inactive) |  | 27.1 µM (inactive) |  |  | 55.6 µM (inactive) | 49.4 µM (inactive) | > 100 µM (inactive)
CC(C)=CC(=O)CC(=O)C(=O)Nc1ccc(C)c(C)c1 |  | > 100 µM (inactive) |  | > 100 µM (inactive) | > 100 µM (inactive) | > 100 µM (inactive) | > 100 µM (inactive) | > 100 µM (inactive) | > 100 µM (inactive)
CC1OC(n2cc(F)c(=O)[nH]c2=O)C=CC1O (stereo not given) | > 100 µM (inactive) | > 100 µM (inactive) | > 100 µM (inactive) | > 100 µM (inactive) | > 100 µM (inactive) | > 100 µM (inactive) | > 100 µM (inactive) | > 100 µM (inactive) | > 100 µM (inactive)
COc1ccc(-c2c3ccccc3c(-c3ccc(OC)cc3)c3ccccc23)cc1 | > 100 µM (inactive) | > 100 µM (inactive) | > 100 µM (inactive) | > 100 µM (inactive) | > 100 µM (inactive) |  | > 100 µM (inactive) | > 100 µM (inactive) | > 100 µM (inactive)
Cc1cccc(-n2c(N)c(-c3nc4ccccc4[nH]3)sc2=S)c1 | 22.8 µM (inactive) | 20.1 µM (inactive) | 47.3 µM (inactive) | 21 µM (inactive) | 25.8 µM (inactive) |  |  |  | 
COc1cc(Nc2nc3c(N)cc(C(F)(F)F)cc3nc2-c2ccccc2)cc(OC)c1OC | 81.8 µM (inactive) | 37.9 µM (inactive) | 29.8 µM (inactive) | 63.5 µM (inactive) | > 82.2 µM (inactive) | > 44.5 µM (inactive) | 19.1 µM (inactive) | > 65.5 µM (inactive) | 
